The source of these data is patent US20250040558A1, “ANTIMICROBIAL ACTIVITY OF CHLORITE-ENTRAINED POLYMERS” (CSP Technologies, Inc., priority 2021, published 2025).

For one test, the system named is S. Newport. In words: Reduction of S. Newport on sliced tomatoes. The test is classed as cell-based. To be noted: 4° C. How it is done: The skins of sliced tomatoes were spot inoculated with S. Newport. Sliced tomatoes were sealed in a controlled environment containing ClO2 or a regular plastic seal. The inoculated tomato skins were removed and processed on days 0, 1, 2, 5 and 7, after which S. Newport was evaluated by plating onto XLT-4 agar.
S. Newport was grown in TSB at 37° C. for 18-24 hr. Bacteria was resuspended in E-pure water. Serial dilutions of the inoculum were plated onto XLT-4 plates and incubated at 37° C. for 18-24 hours.
Tomatoes were first prepared by rinsing with 70% ethanol and thoroughly rinsing with sterile e-pure water. Tomatoes were sliced using a sterile tomato slicer (Prince Castle, Inc) and placed in pre-labelled trays. Five tomatoes were sliced per Aptar tray (4×10.3×3.4 inches). The tomatoes were spiked by inoculating two slices of each tomato with 10 μL of S. Newport. Tomatoes were incubated at room temperature for 1 hr. After drying, each tray was heat sealed with a tray sealing instrument (Maxwell Chase Technologies) at a temperature of 390° F. For the experimental group, the film was treated with 0.63 g of chlorine dioxide. Trays were stored at 4° C. until specimen collection. For each treatment of 1 hr, 24 hr, 48 hr, and 5 days, and 7 days a control and a treated tray were evaluated. Tomato skins of spiked slices were collected and tested for the presence of S. Newport. […]

For a further test, the system named is Microsporidia. In words: Microsporidia spore viability on tomato slices (RK-13 culture, Calcofluor White). The test is classed as cell-based. To be noted: 4° C. As to the method:
Rabbit kidney (Rk-13) cell lines were maintained in flasks using 3.5% Fetal Bovine Serum (HIFBS) EMEM medium 1× antibiotics and antimycotics. Flasks were incubated at 37° C. and 5% CO2 until preparation of slides. 16-microwell slides were seeded with cells and grown in 10% (HIFBS) EMEM medium for 48 hours before inoculation with spores.
Fresh Microsporidia spores were propagated and harvested using RK-13 tissue cultures. The harvested medium containing cell debris and spores was filtered through a 5 μm filter, centrifuged at 2000 g for 15 minutes and counted using a hemocytometer.
Tomatoes were first prepared by rinsing with 70% ethanol and thoroughly rinsing with sterile e-pure water. Tomatoes were sliced using a sterile tomato slicer (Prince Castle, Inc) and placed in pre-labelled trays. Five tomatoes were sliced per Aptar tray (4×10.3×3.4 inches). The tomatoes were spiked by inoculating two slices of each tomato with 10 microliters of oocysts. Tomatoes were incubated at room temperature for 1 hr. […] For each treatment of 1 hr, 24 hr, 48 hr, and 5 days, and 7 days a control and a treated tray were evaluated. […]
Tomato slices spiked with Microsporidia were suspended in F12 media. […] Spore counts were taken using an epifluorescence microscope at 40× magnification and recorded.

With `[O][Cl+][O-]` [chlorine dioxide], the “inactivation of S. Newport” value with S. Newport (film with 0.63 g chlorine dioxide) is given as “effective in inactivation”; in the test on S. Newport (two days of treatment) it was “complete inactivation”. In addition, the Microsporidia spore viability result with Microsporidia (24 hours of treatment) is “completely inactivated”; in the test on Microsporidia (after one hour of treatment) it was “effectively reduced spore viability”.
